Measured values taken from publication PMC8877822, “Interrogation of the Structure–Activity Relationship of a Lipophilic Nitroaromatic Prodrug Series Designed for Cancer Gene Therapy Applications” (Pharmaceuticals, 2022).

How the values were obtained:
[1] = system: H1299 WT cells; test: Anti-proliferative IC50 assay, H1299 WT cells; type: cell-based; conditions: Homo sapiens, NCI-H1299, 4 hour drug exposure, regrowth for five days
Protocol: (§1) The anti-proliferative IC50 was determined as the concentration of prodrug required for 50% inhibition of cell growth, following drug exposure for four hours, then five days regrowth in the absence of drug. Assays were performed under oxic or anoxic conditions as described previously, the latter by using a 5% H2/palladium catalyst scrubbed Bactron anaerobic chamber (Sheldon Manufacturing, Cornelius, OR, USA) to achieve severe anoxia (<10 ppm O2 gas phase) during prodrug exposure.
(§2) Supplementary Table S2. In vitro anti-proliferative activity of the three lead prodrug compounds in H1299 cells expressing E. coli NfsA. IC50 values were determined as the concentration of drug required to inhibit cell growth by 50% of untreated controls following 4 hour drug exposure, with washing and regrowth for five days.
(§3) Compound WT NfsA_Ec Ratio

[2] = system: 100% HCT116 AKR1C3 MCLs; test: 3D multicellular layer (MCL) assay, 100% HCT116 AKR1C3; type: cell-based, human; conditions: 10 µM prodrug, five hours
Protocol: Similar to the 3D NfsA_Ec screen, increased lipophilicity also tracked with increased LCK in 100% AKR1C3-expressing MCLs (R = 0.78, R^2 = 0.61). […] These three lead compounds were taken forward into in vivo studies.
(§4) Multicellular layers (MCLs) were grown, and bystander effect assays were performed as previously reported.
(§5) Figure 4 Lipophilic structure–activity relationship for AKR1C3 in three dimensions. (A) Plating efficiency in 100% HCT116 WT and 100% HCT116 AKR1C3 MCLs exposed to 10 µM prodrug for five hours before dissociation and plating to determine clonogenic survival. (B) Correlation between Log cell kill and LogD7.4. R = 0.78, R^2 = 0.61. Log cell kill = Log CS (control)–Log CS (treated), where CS is the number of clonogenic survivors per MCL.

[3] = LogD7.4 by low-volume octanol/PBS shake-flask method; type: physicochemical; conditions: n-octanol/PBS; octanol-water partition coefficient, shake-flask method at pH 7.4
Protocol: Distribution ratios (LogD7.4) were determined by a low-volume octanol/PBS shake-flask method. Briefly, saturated solutions of octanol and PBS were prepared by mixing equal volumes of n-octanol and PBS (pH 7.4) before being left for three days. The octanol and PBS phases were then carefully separated and left to stand for at least 24 h. Stock solutions (0.1–0.5 mM) of each compound were prepared in octanol saturated with PBS. The stock solutions were diluted with octanol saturated with PBS containing and inter-assay control (acridone) to a final compound concentration of 50 μM. Aliquots (450 μL) were then taken in triplicate, and 450 μL of PBS saturated with octanol was added into amber tubes. The tubes were then sealed in parafilm and rotated for 90 min at 30 rpm to equilibrate. After centrifugation (15,000× g, 5 min, 20°C) the octanol and PBS phases were separated into different tubes and the octanol phase diluted with methanol (1:5 v/v). Both phases were analyzed by HPLC (diode-array detector at 364 ± 10 nm) by injecting 50 μL of the PBS phase and 15 μL of the diluted octanol phase. The results were then expressed as the log ratio of the peak areas obtained from the octanol and PBS phases corrected for dilution and injection volume.

[4] = system: H1299 cells expressing E. coli NfsA; test: Anti-proliferative IC50 assay, H1299 cells expressing E. coli NfsA; type: cell-based; conditions: for IC50: Escherichia coli, NCI-H1299, H1299 NfsA_Ec, 4 hour drug exposure, regrowth for five days; for WT:NfsA_Ec IC50 ratio: H1299 WT vs H1299 NfsA_Ec
Protocol: as §1, §2, §3

[5] = system: 97% HCT116 WT/3% HCT116 NfsA_Ec MCLs; test: 3D multicellular layer (MCL) bystander assay, 97% HCT116 WT/3% HCT116 NfsA_Ec; type: cell-based; conditions: 10 µM prodrug, five hours
Excerpt: We then examined our compounds in a high cell density, 3D multi-cellular layer (MCL) assay in order to determine tissue penetration capacity of the active metabolite(s) and the potential for an efficient bystander effect. Mixed MCLs consisting of a small percentage HCT116 NfsA_Ec cells (3%) in the presence of HCT116 WT cells (97%) were used as a robust screen for efficient bystander cell kill. Here, active cytotoxic metabolites can diffuse out of the minority NfsA_Ec ‘prodrug-activating’ cell population into the WT ‘target’ population, causing death of cells that would not normally be sensitive to that concentration of prodrug.
as §4
as §5, with “Figure 3” for “Figure 4”, “for NfsA_Ec” for “for AKR1C3”, “and 97%” for “and 100%”, “HCT116 WT/3% HCT116 NfsA_Ec” for “HCT116 AKR1C3”, “= 0.63,” for “= 0.78,”, “= 0.40.” for “= 0.61.”

[6] = system: HCT116 cells expressing E. coli NfsA nitroreductase (NfsA_Ec); test: Low cell density anti-proliferative (IC50) assay, HCT116 NfsA_Ec vs HCT116 WT; type: cell-based; conditions: aerobic, five days regrowth; for IC50: Escherichia coli, HCT-116, four hour drug exposure
Protocol: (§6) Next, we evaluated the compounds for activity with the major nitroreductase from E. coli, NfsA (NfsA_Ec), or the human aldo-keto reductase AKR1C3, using a low cell density anti-proliferative (IC50) assay (Figure 2). The sensitivity of HCT116 wild-type (WT) cells and HCT116 cells over-expressing either NfsA_Ec or AKR1C3 was examined under aerobic conditions.
as §1
Figure 2 In vitro anti-proliferative activity of the novel lipophilic analogue series in HCT116 cells expressing AKR1C3 and E. coli NfsA (NfsA_Ec). IC50 values were determined as the concentration of drug required to inhibit cell growth by 50% of untreated controls following four hour drug exposure, with washing and regrowth for five days. Respective IC50 ratios (WT:AKR1C3 or WT:NfsA_Ec) are indicated above the bars for each compound. TEXT PRINTED IN THE PICTURE: PR-104A: HCT116 AKR1C3: 84; HCT116 NfsA_Ec: 2680 | 1: HCT116 AKR1C3: 1.8; HCT116 NfsA_Ec: 242 | 2: HCT116 AKR1C3: 1.6; HCT116 NfsA_Ec: 1431 | 3: HCT116 AKR1C3: 2.3; HCT116 NfsA_Ec: 913 | 4: HCT116 AKR1C3: 3.3; HCT116 NfsA_Ec: 594 | 5: HCT116 AKR1C3: 3.3; HCT116 NfsA_Ec: 152 | 6: HCT116 AKR1C3: 2.4; HCT116 NfsA_Ec: 741 | 7: HCT116 AKR1C3: 3.2; HCT116 NfsA_Ec: 174 | 8: HCT116 AKR1C3: 4.9; HCT116 NfsA_Ec: 81 | 9: HCT116 AKR1C3: 3.4; HCT116 NfsA_Ec: 147 DOUBTS OF THE COPYIST ABOUT THIS PICTURE: All values: the picture prints no measure or unit for the grey numbers above the blue and red bars. […] Each is given only with the cell line of the bar it stands over, as named in the picture's key.

[7] = design: method as in PMID 34959631; conditions: mice, PR-104 at 388 µmol/kg (human equivalent dose); cited from earlier work
[8] = target: T1, purified His6-tagged NfsA_Ec (Escherichia coli, UniProt P17117); design: method as in earlier work; conditions: apparent, 250 µM NADPH; cited from earlier work
T1 construct: His6; made in house
T1 sequence (P17117 1-240): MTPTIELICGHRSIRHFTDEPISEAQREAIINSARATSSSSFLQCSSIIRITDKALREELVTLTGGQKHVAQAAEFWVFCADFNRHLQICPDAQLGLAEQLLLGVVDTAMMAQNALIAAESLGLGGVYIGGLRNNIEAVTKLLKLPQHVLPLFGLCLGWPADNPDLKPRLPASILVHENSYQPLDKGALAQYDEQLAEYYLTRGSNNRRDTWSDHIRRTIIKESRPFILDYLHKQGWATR

[9] = system: HCT116 cells over-expressing AKR1C3; test: Low cell density anti-proliferative (IC50) assay, HCT116 AKR1C3 vs HCT116 WT; type: cell-based, human; conditions: HCT116 WT vs HCT116 AKR1C3, aerobic, four hour exposure, five days regrowth
Protocol: as §6, §1
Figure 2 In vitro anti-proliferative activity of the novel lipophilic analogue series in HCT116 cells expressing AKR1C3 and E. coli NfsA (NfsA_Ec). IC50 values were determined as the concentration of drug required to inhibit cell growth by 50% of untreated controls following four hour drug exposure, with washing and regrowth for five days. Respective IC50 ratios (WT:AKR1C3 or WT:NfsA_Ec) are indicated above the bars for each compound. […]

SMILES | IC50 [1] [nM] | melting point [°C] | Log cell kill (LCK) [2] | logD at 90 min [3] | IC50 [4] [nM] | WT:NfsA_Ec IC50 ratio [4] [fold] | Log cell kill (LCK) [5] | IC50 [6] [nM] | Plasma AUCfree of PR-104A [7] [µM-h] | WT:NfsA_Ec IC50 ratio ([6]; HCT116 WT vs HCT116 NfsA_Ec, four hour exposure) [fold] | Km [8] [µM] | kcat [8] [s⁻¹] | WT:AKR1C3 IC50 ratio [9] [fold]
CN(CCO)C(=O)c1cc(N(CCBr)CCBr)c(S(C)(=O)=O)cc1[N+](=O)[O-] [Compound 2, 5-(Bis(2-bromoethyl)amino)-N-(2-hydroxyethyl)-N-methyl-4-(methylsulfonyl)-2-nitrobenzamide] | 175000 ± 3500 | 138 to 140 | ≤ 0.11 | 1.2 | 170 ± 30 | 1029 |  |  |  |  |  |  | 
CS(=O)(=O)c1cc([N+](=O)[O-])c(C(=O)NCCO)cc1N(CCBr)CCBr [Compound 1, 5-(Bis(2-bromoethyl)amino)-N-(2-hydroxyethyl)-4-(methylsulfonyl)-2-nitrobenzamide] | 166000 ± 26000 |  | ≤ 0.11 | 1 | 1180 ± 40 | 141 |  |  |  |  |  |  | 
CCCS(=O)(=O)c1cc([N+](=O)[O-])c(C(=O)N(C)CCO)cc1N(CCBr)CCBr [Compound 9] |  |  |  | 2.1 |  |  | 1.6 | 1000 |  |  |  |  | 
CCCN(CCO)C(=O)c1cc(N(CCBr)CCBr)c(S(C)(=O)=O)cc1[N+](=O)[O-] [Compound 4] |  |  |  | 2.1 |  |  | 3.06 | 170 |  |  |  |  | 
CS(=O)(=O)OCCN(CCBr)c1c(C(=O)NCCO)cc([N+](=O)[O-])cc1[N+](=O)[O-] [PR-104A, reference compound] | 131000 ± 9900 |  |  |  | 46 ± 3 | 2848 |  | 30 | 38 | 2680 | 100 ± 11 | 12 ± 1.4 | 84
